The target of one experiment is T1, HIF-2α (Homo sapiens, UniProt Q99814).
T1 construct: endogenous in cells; host or cells: 786-O cells (ATCC CRL-1932) stably carrying the Cignal Lenti HIF Luc Reporter
Description: HIF-2α Luciferase Reporter Assay. It is filed as cell-based. As for the experimental part:
Stable cell lines were generated by transducing 786-O cells (ATCC, CRL-1932) with Cignal Lenti HIF Luc Reporter lentivirus (CLS-007L, Qiagen) according to the manufacturer's guidelines. In brief, 0.3×10^6 786-0 cells were transduced with lentivirus at a Multiplicity of Infection (MOI) of 25 for 24 hours. After transduction, cells were replenished with fresh RPMI 1640 Medium (Cat. No. 11875085, Thermo Fisher,) supplemented with 10% FBS (Cat. No. A3160502, Gibco), 2 mM GlutaMax (Cat. No. 35050-061, Invitrogen) and 100 units of penicillin and 100 μg of streptomycin/mL (Cat. No 15070063, Thermo Fisher) for another 24 hours. Antibiotic selection was performed in cell media containing 4 μg/mL of Puromycin. After 7 days of antibiotic selection, stable pools of surviving cells were expanded and used in a luciferase reporter assay.
On day one, 20 uL of HIF-Luc-786-0 cells in OptiMem (Cat. No. 31985088, Thermo Fisher) were seeded into each well of a 384 well white opaque plate (Corning 3570) and incubated at 37° C. and 5% CO2. Twenty microliters of 2× test compounds in OptiMem were added to cells after 4 hours of incubation. Final assay conditions comprised 20,000 cells per well in 1% DMSO with test compound concentrations ranging from 50 uM to 0 uM. After 20 hours incubation at 37° C. and 5% CO2, luciferase activity was determined using ONE-Glo Luciferase Assay Reagent (E6110, Promega) following the manufacture's recommended procedure. Briefly, 40 uL of ONE-Glo luciferase reagents were added to each well and luciferase signals were measured using an Envision 2102 Multilabel Reader. Percentage maximum activity in each test well was calculated based on DMSO (maximum activity) and no cell control wells (baseline activity). The IC50 values of the test compounds were determined from compound dose response curves fitted using a standard four parameter fit equation.
Background: In a reporter assay the amount or activity of a reporter protein is the signal.

The target of experiment [1] is T2, Histidine tagged HIF-2α protein containing PAS-B domain (240-350) (Homo sapiens, UniProt Q99814).
T2 construct: Histidine tagged HIF-2α protein containing PAS-B domain (240-350) was prepared and purified in house; made in house
Description: HIF-2α Scintillation Proximity Assay (SPA). Format: binding. As for the experimental part: Tritium labeled compound N-(3-chlorophenyl)-4-nitro-2,1,3-benzoxadiazol-5-amine was obtained from American Radiolabeled Chemicals Inc. and copper chelate PVT SPA beads were from PerkinElmer (Cat #RPNQ0095). Histidine tagged HIF-2α protein containing PAS-B domain (240-350) was prepared and purified in house.
Compounds solubilized in DMSO were dispensed into a white 384-well polystyrene non-binding flat clear bottom plate (Greiner Bio-One, Cat #781903) using an HP D300 dispenser. Ten microliters of HIS-tagged HIF-2α protein in buffer (25 mM Tris-HCl, pH 7.4, 150 mM NaCl, 0.15% BSA and 0.001% Tween 20) was added to the compound wells and allowed to incubate for 1 hour at room temperature. Ten microliters of SPA bead mix were added to the wells and incubated for an additional 45 minutes, followed by 10 ul of ^3H-tracer solution. Final assay conditions comprised 50 nM HIF-2α protein, 25 nM radiolabeled tracer and 3 ug beads per well with compounds in 2% DMSO. The plate was read using a MicroBeta Microplate Counter (PerkinElmer) for luminescence detection. The IC50 values of the test compounds were determined from compound dose response curves fitted using a standard four parameter fit equation and are reported in Table 1.
On the technique in general: In a scintillation proximity assay essentially only radioactivity close to the scintillant gives light.

Setting [2] is: HIF-Luc-786-0 cells, 20 hours incubation, luciferase activity, read-out: HIF-2α Luciferase Assay.
The mark [3] stands for this setting: 50 nM HIF-2α protein, 25 nM radiolabeled tracer, read-out: HIF-2α Scintillation Proximity Assay.

Read-outs that look alike come from different tables or passages of the source. Some results are limits rather than exact numbers.

T1 sequence (Q99814 whole entry): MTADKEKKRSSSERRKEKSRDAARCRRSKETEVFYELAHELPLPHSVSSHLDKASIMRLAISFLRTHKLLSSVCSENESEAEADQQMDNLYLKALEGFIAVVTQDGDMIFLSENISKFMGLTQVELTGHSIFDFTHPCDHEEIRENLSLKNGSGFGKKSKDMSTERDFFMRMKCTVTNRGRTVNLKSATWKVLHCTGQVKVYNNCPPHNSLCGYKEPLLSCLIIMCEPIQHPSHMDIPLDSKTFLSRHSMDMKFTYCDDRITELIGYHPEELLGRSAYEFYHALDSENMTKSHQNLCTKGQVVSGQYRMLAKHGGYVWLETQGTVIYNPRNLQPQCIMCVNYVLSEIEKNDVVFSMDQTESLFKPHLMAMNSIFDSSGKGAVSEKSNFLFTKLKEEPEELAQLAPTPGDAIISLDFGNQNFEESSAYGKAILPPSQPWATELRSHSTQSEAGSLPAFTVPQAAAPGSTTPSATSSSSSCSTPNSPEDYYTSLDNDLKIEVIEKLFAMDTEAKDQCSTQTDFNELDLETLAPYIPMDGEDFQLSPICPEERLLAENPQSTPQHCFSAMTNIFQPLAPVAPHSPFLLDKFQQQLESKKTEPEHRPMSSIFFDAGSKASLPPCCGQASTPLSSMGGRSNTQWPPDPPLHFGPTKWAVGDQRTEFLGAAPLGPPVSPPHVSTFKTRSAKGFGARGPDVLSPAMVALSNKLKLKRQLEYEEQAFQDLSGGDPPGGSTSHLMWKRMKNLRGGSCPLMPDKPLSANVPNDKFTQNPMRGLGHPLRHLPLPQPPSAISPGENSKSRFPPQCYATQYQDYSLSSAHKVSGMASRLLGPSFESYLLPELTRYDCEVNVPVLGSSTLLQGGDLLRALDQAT
T2 sequence (Q99814 240-350): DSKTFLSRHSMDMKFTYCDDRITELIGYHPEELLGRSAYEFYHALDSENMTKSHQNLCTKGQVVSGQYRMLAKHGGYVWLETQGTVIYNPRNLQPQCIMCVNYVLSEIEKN

`N#Cc1cccc(Oc2ccc(S(=O)(=O)C(F)(F)F)c3[nH]nc(Cl)c23)c1` [Example 62, m-[3-Chloro-7-(trifluoromethylsulfonyl)-1H-indazol-4-yloxy]benzonitrile]: the values for the IC50 (at HIF-2α (setting [2]); in experiment [1] (setting [3])) were > 10 µM and < 1 µM, respectively.

For `O=S(=O)(c1ccc(Oc2cccc(F)c2)c2cn[nH]c12)C(F)(F)F` [Example 31, 4-(3-Fluorophenoxy)-7-(trifluoromethylsulfonyl)-1H-indazole], the IC50 (at HIF-2α (setting [2]); in experiment [1] (setting [3])) was 1 to 10 µM throughout.

With `O=S(=O)(c1ccc(Nc2cc(F)cc(F)c2)c2cn[nH]c12)C(F)(F)F` [Example 46, (3,5-Difluorophenyl)[7-(trifluoromethylsulfonyl)-1H-indazol-4-yl]amine], the IC50 is > 10 µM at HIF-2α (setting [2]) and 1 to 10 µM in experiment [1] (setting [3]).

In the case of `CS(=O)(=O)c1ccc(Oc2cc(F)cc(Cl)c2)c2cn[nH]c12` [Example 7, 4-(3-Chloro-5-fluorophenoxy)-7-methanesulfonyl-1H-indazole], the IC50 (on HIF-2α (setting [2]); in experiment [1] (setting [3])) was > 10 µM each time.

`O=S(=O)(c1ccc(NCc2cc(Cl)cc(Cl)c2)c2cn[nH]c12)C(F)(F)F` [Example 56, N-[(3,5-dichlorophenyl)methyl]-7-(trifluoromethylsulfonyl)-1H-indazol-4-amine]: the IC50 (at HIF-2α (setting [2]); in experiment [1] (setting [3])) was > 10 µM throughout.

On to `O=S(=O)(c1ccc(Oc2ccc(Cl)c(F)c2)c2cn[nH]c12)C(F)(F)F` [Example 33, 4-(4-Chloro-3-fluorophenoxy)-7-(trifluoromethylsulfonyl)-1H-indazole], for which the IC50 (at HIF-2α (setting [2]); in experiment [1] (setting [3])) was > 10 µM throughout.

In the case of `N#Cc1cc(F)cc(Oc2ccc(S(=O)(=O)C(F)(F)F)c3[nH]ncc23)c1` [Example 15, 3-Fluoro-5-[(7-trifluoromethanesulfonyl-1H-indazol-4-yl)oxy]benzonitrile], the IC50 (at HIF-2α; in experiment [1]) was < 1 µM in each case.

For the compound `COc1ccc(Oc2ccc(S(=O)(=O)C(F)(F)F)c3[nH]ncc23)cc1` [Example 20, 4-(p-Methoxyphenoxy)-7-(trifluoromethylsulfonyl)-1H-indazole], the IC50 (at HIF-2α (setting [2]); in experiment [1] (setting [3])) was > 10 µM each time.

As for `Cc1cc(C#N)cc(Oc2ccc(S(=O)(=O)C(F)(F)F)c3[nH]ncc23)c1` [Example 28, 3-Methyl-5-[[7-(trifluoromethylsulfonyl)-1H-indazol-4-yl]oxy]benzonitrile], the IC50 (at HIF-2α (setting [2]); in experiment [1] (setting [3])) was 1 to 10 µM throughout.

Turning to `O=S(=O)(c1ccc(Oc2cccc(Cl)c2)c2cn[nH]c12)C(F)(F)F` [Example 41, 4-(3-Chlorophenoxy)-7-(trifluoromethylsulfonyl)-1H-indazole], the IC50 on HIF-2α (setting [2]) was 1 to 10 µM; in experiment [1] (setting [3]), < 1 µM.

In the case of `Cc1cncc(Oc2ccc(S(=O)(=O)C(F)(F)F)c3[nH]ncc23)n1` [Example 21, 4-[(6-Methylpyrazin-2-yl)oxy]-7-trifluoromethanesulfonyl-1H-indazole], the IC50 (at HIF-2α (setting [2]); in experiment [1] (setting [3])) was > 10 µM each time.

Consider `N#Cc1cc(Oc2ccc(S(=O)(=O)C(F)(F)F)c3[nH]ncc23)ccc1F` [Example 36, 2-Fluoro-5-[[7-(trifluoromethylsulfonyl)-1H-indazol-4-yl]oxy]benzonitrile], for which the IC50 at HIF-2α (setting [2]) is > 10 µM; in experiment [1] (setting [3]), 1 to 10 µM.

Turning to `N#Cc1cc(F)cc(Nc2ccc(C(F)(F)F)c3[nH]ncc23)c1` [Example 14, 3-Fluoro-5-[7-(trifluoromethyl)-1H-indazol-4-ylamino]benzonitrile], the IC50 (at HIF-2α (setting [2]); in experiment [1] (setting [3])) was 1 to 10 µM each time.

For `O=S(=O)(c1ccc(Nc2cc(F)cc(Cl)c2)c2cn[nH]c12)C(F)(F)F` [Example 47, (3-Chloro-5-fluorophenyl)[7-(trifluoromethylsulfonyl)-1H-indazol-4-yl]amine], the IC50 was > 10 µM at HIF-2α (setting [2]) and 1 to 10 µM in experiment [1] (setting [3]).

`N#Cc1cc(Oc2ccc(S(=O)(=O)C(F)(F)F)c3[nH]ncc23)ccc1Cl` [Example 35, 2-Chloro-5-[[7-(trifluoromethylsulfonyl)-1H-indazol-4-yl]oxy]benzonitrile]: the IC50 is > 10 µM at HIF-2α (setting [2]) and 1 to 10 µM in experiment [1] (setting [3]).

For the compound `O=S(=O)(c1ccc(Oc2cccc(Cl)c2)c2c(Cl)n[nH]c12)C(F)(F)F` [Example 63, 3-Chloro-4-(m-chlorophenoxy)-7-(trifluoromethylsulfonyl)-1H-indazole], the IC50 on HIF-2α (setting [2]) was > 10 µM; in experiment [1] (setting [3]) it was 1 to 10 µM.

For the compound `N#Cc1cc(F)cc(Oc2c(F)cc(S(=O)(=O)C(F)(F)F)c3[nH]ncc23)c1` [Example 64, 3-Fluoro-5-[(5-fluoro-7-trifluoromethanesulfonyl-1H-indazol-4-yl)oxy]benzonitrile], the IC50 is > 10 µM at HIF-2α (setting [2]) and 1 to 10 µM in experiment [1] (setting [3]).

In the case of `O=S(=O)(c1ccc(Oc2cc(F)cc(F)c2)c2cn[nH]c12)C(F)(F)F` [Example 25, 4-(3,5-Difluorophenoxy)-7-trifluoromethanesulfonyl-1H-indazole], the IC50 (on HIF-2α (setting [2]); in experiment [1] (setting [3])) was < 1 µM throughout.

For `CS(=O)(=O)c1ccc(Oc2cc(F)cc(C#N)c2)c2c(Cl)n[nH]c12` [Example 8, 3-[(3-Chloro-7-methanesulfonyl-1H-indazol-4-yl)oxy]-5-fluorobenzonitrile], the values for the IC50 (at HIF-2α (setting [2]); in experiment [1] (setting [3])) were 1 to 10 µM and > 10 µM, respectively.

Regarding `O=S(=O)(c1ccc(NCc2ccc(F)cc2)c2cn[nH]c12)C(F)(F)F` [Example 52, N-[(4-fluorophenyl)methyl]-7-(trifluoromethylsulfonyl)-1H-indazol-4-amine], the IC50 (on HIF-2α (setting [2]); in experiment [1] (setting [3])) was > 10 µM each time.

As to `O=S(=O)(c1ccc(NCc2ccc(F)cc2F)c2cn[nH]c12)C(F)(F)F` [Example 53, N-[(2,4-difluorophenyl)methyl]-7-(trifluoromethylsulfonyl)-1H-indazol-4-amine], the IC50 (on HIF-2α (setting [2]); in experiment [1] (setting [3])) was > 10 µM throughout.

With `Cc1n[nH]c2c(S(=O)(=O)C(F)(F)F)ccc(Oc3cc(F)cc(C#N)c3)c12` [Example 58, 3-Fluoro-5-[(3-methyl-7-trifluoromethanesulfonyl-1H-indazol-4-yl)oxy]benzonitrile], the IC50 (at HIF-2α (setting [2]); in experiment [1] (setting [3])) was 1 to 10 µM throughout.

With `O=S(=O)(c1ccc(NCc2ccc(F)cc2Cl)c2cn[nH]c12)C(F)(F)F` [Example 54, N-[(2-chloro-4-fluorophenyl)methyl]-7-(trifluoromethylsulfonyl)-1H-indazol-4-amine], the IC50 (on HIF-2α (setting [2]); in experiment [1] (setting [3])) was > 10 µM in each case.

Regarding `N#Cc1ccc(Oc2ccc(S(=O)(=O)C(F)(F)F)c3[nH]ncc23)cc1F` [Example 34, 2-Fluoro-4-[[7-(trifluoromethylsulfonyl)-1H-indazol-4-yl]oxy]benzonitrile], the IC50 (on HIF-2α (setting [2]); in experiment [1] (setting [3])) was > 10 µM throughout.

With `CS(=O)(=O)c1ccc(Nc2cc(F)cc(C#N)c2)c2c(F)n[nH]c12` [Example 2, 3-Fluoro-5-[(3-fluoro-7-methanesulfonyl-1H-indazol-4-yl)amino]benzonitrile], the IC50 at HIF-2α (setting [2]) was 1 to 10 µM; in experiment [1] (setting [3]), > 10 µM.

Consider `N#Cc1cc(Oc2ccc(S(=O)(=O)C(F)(F)F)c3[nH]ncc23)cc(C(F)(F)F)c1` [Example 39, 3-(Trifluoromethyl)-5-[[7-(trifluoromethylsulfonyl)-1H-indazol-4-yl]oxy]benzonitrile], for which the IC50 (on HIF-2α (setting [2]); in experiment [1] (setting [3])) was 1 to 10 µM each time.

For the compound `O=S(=O)(c1ccc(Oc2cc(F)cc(Cl)c2)c2cn[nH]c12)C(F)(F)F` [Example 40, 4-(3-Chloro-5-fluorophenoxy)-7-(trifluoromethylsulfonyl)-1H-indazole], the IC50 was 1 to 10 µM on HIF-2α (setting [2]) and < 1 µM in experiment [1] (setting [3]).

These data come from US20230024438A1, “INHIBITORS OF HIF-2ALPHA” (ARCUS BIOSCIENCES, INC., priority 2019, published 2023).
